Laboratory results taken from PubChem BioAssay (NCI).
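Step 1: Grow cells in 96-well plates. Step 2: Expose to compound for 48 hours at 5 concentrations. Step 3: Interpolate endpoints linearly; if unreached, use highest concentration. At the TGI there is no net growth.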

What follows are compounds tested on OVCAR-5 ovarian (assay: DTP human tumour cell line panel, 48 h).

`Cn1c2c(c3ccccc31)CCN1C(=O)CN(C(=O)C3CCCCC3)CC21` (configuration not stated) and `O=C(Cn1c(-c2ccccc2)cc2ccccc21)N1CCCC1` cannot be ordered by TGI: greater than 100 µM for the first, greater than 100 µM for the second.

`CC(=O)OCC1OC(OC2CC3C(C)(C)C(O)CC[C@]3(C)C3CCC45CC4(CCC5[C@@H](C)CC(O)C(O)C(C)(C)O)[C@]23C)C(O)C(O)C1O` (some centres not stated) and `CC(=O)O[C@H]1CC[C@@]2(C)C(=CC[C@H]3[C@@H]4C/C(=C\c5ccc(N(C)C)cc5)[C@H](OC(C)=O)[C@@]4(C)CC[C@@H]32)C1` cannot be ordered by TGI: greater than 10 µM for the first, 52.8 µM for the second.

`C=C(Nc1nc2ccc(C)cc2s1)C(=O)C(CC)C(=O)C(CC)CC1C(=O)NC(=O)NC1=O` (configuration not stated) and `O=C1C=C(NCCOCCO)C(=O)c2c(O)ccc(O)c21` cannot be ordered by TGI: greater than 100 µM for the first, greater than 100 µM for the second.

`COc1ccc(OC)c(/C=C(/C#N)c2ccccc2)c1` and `O=C(CC(C(=O)c1ccsc1)c1ccccc1)c1ccccc1` (configuration not stated) cannot be ordered by TGI: greater than 100 µM for the first, greater than 100 µM for the second.

`CCOC(=O)c1sc2c(c1OC(=O)c1ccc(OC)cc1)c(=O)n(-c1ccccc1)c(=S)n2-c1ccccc1` and `C=CCN(C(=O)CNC(=O)C(F)(F)F)c1cc(OCc2ccccc2)c2c(c1)c(C)cn2S(=O)(=O)c1ccccc1` cannot be ordered by TGI: greater than 100 µM for the first, greater than 100 µM for the second.

`Cc1ccc(Cl)c2c(=O)c3ccc(N)cc3sc12` and `CC1CN=C(N(C(=O)Nc2ccccc2)c2ccc(Cl)c(Cl)c2)S1` (configuration not stated) cannot be ordered by TGI: greater than 100 µM for the first, greater than 100 µM for the second.

Compared with `C=CCN1CCC(O)(c2cc(C(=O)OCC)[nH]c2-c2cc(C)no2)C1` (configuration not stated), `COc1cccc(C2c3cc4c(cc3OC(C)(N3CCCC3)C2C)OCO4)c1` (configuration not stated) is lower in TGI: greater than 100 µM for the first, 47.5 µM for the second.

`CC1CN=C(N(C(=O)Nc2ccc(Cl)c(Cl)c2)c2ccccc2)S1` (configuration not stated) and `N#Cc1c(-c2ccc(Cl)cc2)c(C#N)c(=O)n(NS(=O)(=O)c2ccccc2)c1O` cannot be ordered by TGI: greater than 100 µM for the first, greater than 100 µM for the second.

`CN(C)/N=C1/CCC(C(F)(F)F)(C(F)(F)F)O1` and `COC1(OC)CCCc2c1no[n+]2[O-]` cannot be ordered by TGI: greater than 100 µM for the first, greater than 100 µM for the second.

`CCOC(=O)NNC(=O)NCCCCNC(=O)NNC(=O)OCC` and `COC(=O)c1nsc(OC)c1Cl` cannot be ordered by TGI: greater than 100 µM for the first, greater than 100 µM for the second.

Going from `[N-]=[N+]=NCc1nc(N)c2c3c(sc2n1)CCCC3` to `c1ccc2c(c1)SCCC2NC1=NCCO1` (configuration not stated), the TGI rises from 10.1 µM to greater than 100 µM.

`CC(C)(C)OC/C=C(/CO)[C@@H]1C=C[C@H](O)C1` and `CC1(C)OC[C@@H]([C@H](O)C2C=CC(=O)S2)O1` (some centres not stated) cannot be ordered by TGI: greater than 100 µM for the first, greater than 100 µM for the second.

`CSc1ccsc1-c1sc(-c2cc(SC)c(-c3sc(-c4cc(SC)c(-c5sccc5SC)s4)cc3SC)s2)cc1SC` and `CCSC1=N/C(=C\c2ccc(N(C)C)cc2)C(Cl)=N1` cannot be ordered by TGI: greater than 100 µM for the first, greater than 100 µM for the second.

These compounds were tested on SW-620 colon (assay: DTP human tumour cell line panel, 48 h).

`Cn1c2c(c3ccccc31)CCN1C(=O)CN(C(=O)C3CCCCC3)CC21` (configuration not stated) and `O=C(Cn1c(-c2ccccc2)cc2ccccc21)N1CCCC1` cannot be ordered by TGI: greater than 100 µM for the first, greater than 100 µM for the second.

`CC(=O)OCC1OC(OC2CC3C(C)(C)C(O)CC[C@]3(C)C3CCC45CC4(CCC5[C@@H](C)CC(O)C(O)C(C)(C)O)[C@]23C)C(O)C(O)C1O` (some centres not stated) and `CC(=O)O[C@H]1CC[C@@]2(C)C(=CC[C@H]3[C@@H]4C/C(=C\c5ccc(N(C)C)cc5)[C@H](OC(C)=O)[C@@]4(C)CC[C@@H]32)C1` cannot be ordered by TGI: greater than 10 µM for the first, 46.4 µM for the second.

First: C=C(Nc1nc2ccc(C)cc2s1)C(=O)C(CC)C(=O)C(CC)CC1C(=O)NC(=O)NC1=O (configuration not stated)
Second: O=C1C=C(NCCOCCO)C(=O)c2c(O)ccc(O)c21
The TGI of the first is higher: greater than 100 µM for the first, 33.1 µM for the second.

`COc1ccc(OC)c(/C=C(/C#N)c2ccccc2)c1` and `O=C(CC(C(=O)c1ccsc1)c1ccccc1)c1ccccc1` (configuration not stated) cannot be ordered by TGI: greater than 100 µM for the first, greater than 100 µM for the second.

`COC(=O)C(C(=O)Cc1ccccc1[N+](=O)[O-])C(=O)OC` and `CCOC(=O)NNC(=O)NCCCCNC(=O)NNC(=O)OCC` cannot be ordered by TGI: greater than 100 µM for the first, greater than 100 µM for the second.

`CCOC(=O)c1sc2c(c1OC(=O)c1ccc(OC)cc1)c(=O)n(-c1ccccc1)c(=S)n2-c1ccccc1` and `N#Cc1c(-c2ccc(Cl)cc2)c(C#N)c(=O)n(NS(=O)(=O)c2ccccc2)c1O` cannot be ordered by TGI: greater than 100 µM for the first, greater than 100 µM for the second.

`C=CCN1CCC(O)(c2cc(C(=O)OCC)[nH]c2-c2cc(C)no2)C1` (configuration not stated) and `Cc1cc(C(F)(F)F)cc(-n2nc(NS(=O)(=O)c3cc(C)c(Cl)cc3S)nc2N)n1` cannot be ordered by TGI: greater than 100 µM for the first, greater than 100 µM for the second.

`CC1CN=C(N(C(=O)Nc2ccc(Cl)c(Cl)c2)c2ccccc2)S1` (configuration not stated) and `CC1CN=C(N(C(=O)Nc2ccccc2)c2ccc(Cl)c(Cl)c2)S1` (configuration not stated) cannot be ordered by TGI: greater than 100 µM for the first, greater than 100 µM for the second.

`CN(C)/N=C1/CCC(C(F)(F)F)(C(F)(F)F)O1` and `COC1(OC)CCCc2c1no[n+]2[O-]` cannot be ordered by TGI: greater than 100 µM for the first, greater than 100 µM for the second.

`COC(=O)c1nsc(OC)c1Cl` and `CCSC1=N/C(=C\c2ccc(N(C)C)cc2)C(Cl)=N1` cannot be ordered by TGI: greater than 100 µM for the first, greater than 100 µM for the second.

`[N-]=[N+]=NCc1nc(N)c2c3c(sc2n1)CCCC3` and `COc1cccc(C2c3cc4c(cc3OC(C)(N3CCCC3)C2C)OCO4)c1` (configuration not stated) cannot be ordered by TGI: greater than 100 µM for the first, greater than 100 µM for the second.

First: CC(C)(C)OC/C=C(/CO)[C@@H]1C=C[C@H](O)C1
Second: CC1(C)OC[C@@H]([C@H](O)C2C=CC(=O)S2)O1 (some centres not stated)
The TGI of the first is higher: greater than 100 µM for the first, 98.6 µM for the second.

Compared with `c1ccc2c(c1)SCCC2NC1=NCCO1` (configuration not stated), `CSc1ccsc1-c1sc(-c2cc(SC)c(-c3sc(-c4cc(SC)c(-c5sccc5SC)s4)cc3SC)s2)cc1SC` is lower in TGI: greater than 100 µM for the first, 69.7 µM for the second.

These compounds were tested on UACC-62 melanoma (assay: DTP human tumour cell line panel, 48 h).

Compared with `Cn1c2c(c3ccccc31)CCN1C(=O)CN(C(=O)C3CCCCC3)CC21` (configuration not stated), `COc1ccc(OC)c(/C=C(/C#N)c2ccccc2)c1` is lower in TGI: greater than 100 µM for the first, 35.8 µM for the second.

`CC(=O)OCC1OC(OC2CC3C(C)(C)C(O)CC[C@]3(C)C3CCC45CC4(CCC5[C@@H](C)CC(O)C(O)C(C)(C)O)[C@]23C)C(O)C(O)C1O` (some centres not stated) and `C=C(Nc1nc2ccc(C)cc2s1)C(=O)C(CC)C(=O)C(CC)CC1C(=O)NC(=O)NC1=O` (configuration not stated) cannot be ordered by TGI: greater than 10 µM for the first, greater than 100 µM for the second.

For `COC(=O)C(C(=O)Cc1ccccc1[N+](=O)[O-])C(=O)OC`, the TGI was greater than 100 µM.
